Assays:
Experiment in all cases: Ras-Raf disruption / FRET / MOA assay (BRAF RBD)
Type in all cases: biochemical
[1] = target: KRAS G12V (Homo sapiens, UniProt P01116+P62937, G12V); details: Ras-Raf disruption, with Cyclophilin A; read-out: KRAS G12V FRET data IC50
From the text: (§1) Disruption of […] Ras-binding Domain (BRAF^RBD) Interaction with K-Ras by Compounds of the Invention (also Called a FRET Assay or an MOA Assay)
(§2) Note—The following protocol describes a procedure for monitoring disruption of K-Ras G12C (GMP-PNP) binding to BRAF^RBD by a compound of the invention. This protocol may also be executed substituting other Ras proteins or nucleotides, such as K-Ras G12D and K-Ras G13D.
(§3) The purpose of this biochemical assay was to measure the ability of test compounds to facilitate ternary complex formation between a nucleotide-loaded K-Ras isoform and Cyclophilin A; the resulting ternary complex disrupts binding to a BRAF^RBD construct, inhibiting K-Ras signaling through a RAF effector. Data is reported as IC50 values.
(§4) In assay buffer containing 25 mM HEPES pH 7.3, 0.002% Tween20, 0.1% BSA, 100 mM NaCl and 5 mM MgCl2, tagless Cyclophilin A, His6-K-Ras-GMPPNP, and GST-BRAF^RBD were combined in a 384-well assay plate at final concentrations of 25 μM, 12.5 nM, and 50 nM, respectively. Compound was present in plate wells as a 10-point 3-fold dilution series starting at a final concentration of 30 μM. After incubation at 25° C. for 3 hours, a mixture of anti-His Eu-W1024 and anti-GST allophycocyanin was then added to assay sample wells at final concentrations of 10 nM and 50 nM, respectively, and the reaction incubated for an additional 1.5 hours. […] Compounds that facilitate disruption of a K-Ras:RAF complex were identified as those eliciting a decrease in the TR-FRET ratio relative to DMSO control wells.

[2] = target: KRAS G13D (Homo sapiens, UniProt P01116+P62937, G13D); details: Ras-Raf disruption, with Cyclophilin A; read-out: KRAS G13D FRET data IC50
From the text: as §1, §2, §3, §4

[3] = target: KRAS WT (Homo sapiens, UniProt P01116+P62937); details: Ras-Raf disruption, with Cyclophilin A; read-out: KRAS WT FRET data IC50
From the text: as §1, §2, §3, §4

[4] = target: KRAS G12S (Homo sapiens, UniProt P01116+P62937, G12S); details: Ras-Raf disruption, with Cyclophilin A; read-out: KRAS G12S FRET data IC50
From the text: as §1, §2, §3, §4

[5] = target: KRAS G12D (Homo sapiens, UniProt P01116+P62937, G12D); details: Ras-Raf disruption, with Cyclophilin A; read-out: KRAS G12D FRET data IC50
From the text: as §1, §2, §3, §4

[6] = target: KRAS G13C (Homo sapiens, UniProt P01116+P62937, G13C); details: Ras-Raf disruption, with Cyclophilin A; read-out: KRAS G13C FRET data IC50
From the text: as §1, §2, §3, §4

[7] = target: NRAS G12C (Homo sapiens, UniProt P01111+P62937, G12C); details: NRAS G12C; read-out: NRAS G12C FRET data IC50
From the text: as §1, §2, §3, §4

[8] = target: KRAS G12C (Homo sapiens, UniProt P01116+P62937, G12C); details: Ras-Raf disruption, with Cyclophilin A; read-out: KRAS G12C FRET data IC50
From the text: as §1, §2, §3, §4
as §3, with “is” for “was”, “Ras” for “K-Ras”, “cyclophilin” for “Cyclophilin”, “effector.” for “effector. Data is reported as IC50 values.”
In assay buffer containing 25 mM HEPES pH 7.3, 0.002% Tween20, 0.1% BSA, 100 mM NaCl and 5 mM MgCl2, tagless Cyclophilin A, His6-K-Ras-GMPPNP (or other Ras variant), and GST-BRAF^RBD are combined in a 384-well assay plate at final concentrations of 25 μM, 12.5 nM and 50 nM, respectively. Compound is present in plate wells as a 10-point 3-fold dilution series starting at a final concentration of 30 μM. After incubation at 25° C. for 3 hours, a mixture of Anti-His Eu-W1024 and anti-GST allophycocyanin is then added to assay sample wells at final concentrations of 10 nM and 50 nM, respectively, and the reaction incubated for an additional 1.5 hours. […] Compounds that facilitate disruption of a Ras:RAF complex are identified as those eliciting a decrease in the TR-FRET ratio relative to DMSO control wells.

Chain of KRAS G12D (P01116 1-169 isoform P01116-2 G12D limits assumed): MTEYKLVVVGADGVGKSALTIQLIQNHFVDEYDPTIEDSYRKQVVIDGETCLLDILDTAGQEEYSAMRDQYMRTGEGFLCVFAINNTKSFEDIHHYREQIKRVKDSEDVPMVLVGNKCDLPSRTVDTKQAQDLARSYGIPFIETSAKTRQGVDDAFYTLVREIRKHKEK
Chain of KRAS G12D (P62937 whole entry): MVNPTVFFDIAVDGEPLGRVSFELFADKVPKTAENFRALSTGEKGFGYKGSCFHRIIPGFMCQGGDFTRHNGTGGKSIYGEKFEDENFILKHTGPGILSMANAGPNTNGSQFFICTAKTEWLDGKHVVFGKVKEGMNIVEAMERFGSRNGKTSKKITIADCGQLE
Chain of KRAS G13C (P01116 1-169 isoform P01116-2 G13C limits assumed): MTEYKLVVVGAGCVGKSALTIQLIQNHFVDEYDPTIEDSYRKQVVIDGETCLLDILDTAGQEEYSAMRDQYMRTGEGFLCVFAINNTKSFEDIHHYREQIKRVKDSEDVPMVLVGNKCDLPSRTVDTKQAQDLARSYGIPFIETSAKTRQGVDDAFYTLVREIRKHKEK
Chain of KRAS G13C (P62937 whole entry): as the sequence (P62937 whole entry) above
Chain of KRAS G12C (P01116 1-169 isoform P01116-2 G12C limits assumed): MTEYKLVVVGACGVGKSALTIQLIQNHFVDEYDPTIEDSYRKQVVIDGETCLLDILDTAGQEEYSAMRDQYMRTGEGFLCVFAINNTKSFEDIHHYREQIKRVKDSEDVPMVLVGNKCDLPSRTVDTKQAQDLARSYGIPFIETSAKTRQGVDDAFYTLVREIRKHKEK
Chain of KRAS G12C (P62937 whole entry): as the sequence (P62937 whole entry) above
Chain of KRAS WT (P01116 1-169 isoform P01116-2 limits assumed): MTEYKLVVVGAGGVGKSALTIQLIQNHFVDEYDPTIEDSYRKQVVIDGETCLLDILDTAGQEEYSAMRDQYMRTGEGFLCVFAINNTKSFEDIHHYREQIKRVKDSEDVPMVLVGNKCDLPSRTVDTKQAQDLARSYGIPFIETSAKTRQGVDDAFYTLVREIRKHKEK
Chain of KRAS WT (P62937 whole entry): as the sequence (P62937 whole entry) above
Chain of NRAS G12C (P01111 whole entry G12C): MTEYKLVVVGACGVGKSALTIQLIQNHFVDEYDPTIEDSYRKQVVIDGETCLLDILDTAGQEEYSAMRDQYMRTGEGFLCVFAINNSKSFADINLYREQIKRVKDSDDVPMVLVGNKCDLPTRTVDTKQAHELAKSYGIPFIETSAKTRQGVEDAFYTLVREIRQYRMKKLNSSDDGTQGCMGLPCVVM
Chain of NRAS G12C (P62937 whole entry): as the sequence (P62937 whole entry) above
Chain of KRAS G12V (P01116 1-169 isoform P01116-2 G12V limits assumed): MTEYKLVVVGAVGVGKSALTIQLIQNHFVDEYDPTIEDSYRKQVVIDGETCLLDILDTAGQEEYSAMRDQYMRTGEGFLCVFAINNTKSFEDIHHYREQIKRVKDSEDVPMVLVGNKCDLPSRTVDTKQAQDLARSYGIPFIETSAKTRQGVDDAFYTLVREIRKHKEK
Chain of KRAS G12V (P62937 whole entry, the tested form may be a part): as the sequence (P62937 whole entry) above
Chain of KRAS G12S (P01116 1-169 isoform P01116-2 G12S limits assumed): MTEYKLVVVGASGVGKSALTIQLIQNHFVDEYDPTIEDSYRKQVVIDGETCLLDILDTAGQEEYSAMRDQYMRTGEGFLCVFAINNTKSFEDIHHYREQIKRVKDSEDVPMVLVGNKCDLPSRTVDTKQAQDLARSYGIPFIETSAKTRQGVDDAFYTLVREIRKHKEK
Chain of KRAS G12S (P62937 whole entry): as the sequence (P62937 whole entry) above
Chain of KRAS G13D (P01116 1-169 isoform P01116-2 G13D limits assumed): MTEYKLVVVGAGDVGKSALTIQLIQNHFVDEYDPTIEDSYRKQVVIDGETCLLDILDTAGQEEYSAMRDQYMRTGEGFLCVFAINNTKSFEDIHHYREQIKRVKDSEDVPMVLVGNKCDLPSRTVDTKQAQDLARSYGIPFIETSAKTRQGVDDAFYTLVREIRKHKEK
Chain of KRAS G13D (P62937 whole entry): as the sequence (P62937 whole entry) above

Structure (SMILES) | IC50 [1] [nM] | IC50 [2] [nM] | IC50 [3] [nM] | IC50 [4] [nM] | IC50 [5] [nM] | IC50 [6] [nM] | IC50 [7] [nM] | IC50 [8] [nM]
CCn1c(-c2cccnc2[C@H](C)OC)c2c3cc(ccc31)-c1cc(O)cc(c1)C[C@H](NC(=O)[C@H](C(C)C)N(C)C(=O)N1CCN(C(=O)[C@H]3CN3)CC1=O)C(=O)N1CCC[C@H](N1)C(=O)OCC(C)(C)C2 (atropisomer, axis not shown) [Example 183] | 100 to 1000 | 100 to 1000 | 10 to 100 | 100 to 1000 | 1000 to 10000 | 10 to 100 | 10 to 100 | < 10
CCn1c(-c2cccnc2[C@H](C)OC)c2c3cc(ccc31)-c1cc(O)cc(c1)C[C@H](NC(=O)[C@H](C(C)C)N(C)C(=O)[C@]1(F)CCN(C(=O)[C@@H]3CN3)C1)C(=O)N1CCC[C@H](N1)C(=O)OCC(C)(C)C2 (atropisomer, axis not shown) [Example 184] | 100 to 1000 | 100 to 1000 | 100 to 1000 | 100 to 1000 | 100 to 1000 | 10 to 100 | < 10 | < 10
CCn1c(-c2cccnc2[C@H](C)OC)c2c3cc(ccc31)-c1cc(O)cc(c1)C[C@H](NC(=O)[C@H](C(C)C)N(C)C(=O)[C@@]1(F)CCN(C(=O)[C@@H]3CN3)C1)C(=O)N1CCC[C@H](N1)C(=O)OCC(C)(C)C2 (atropisomer, axis not shown) [Example 185] | 100 to 1000 | 100 to 1000 | 100 to 1000 | 100 to 1000 | 100 to 1000 | 10 to 100 | 10 to 100 | 10 to 100
CCn1c(-c2cccnc2[C@H](C)OC)c2c3cc(ccc31)-c1cc(O)cc(c1)C[C@H](NC(=O)[C@H](C(C)C)N(C)C(=O)[C@H]1CCN(C(=O)[C@H]3CN3)C1)C(=O)N1CCC[C@H](N1)C(=O)OCC(C)(C)C2 (single isomer, unassigned) [Example 43B] | 1000 to 10000 | 1000 to 10000 |  | 1000 to 10000 | 1000 to 10000 | 1000 to 10000 | 10 to 100 | 10 to 100
CCn1c(-c2cnccc2COC)c2c3cc(ccc31)-c1cc(O)cc(c1)C[C@H](NC(=O)[C@H](C(C)C)N(C)C(=O)c1ccc(NC(=O)[C@H]3CN3)cn1)C(=O)N1CCC[C@H](N1)C(=O)OCC(C)(C)C2 [47 A and B] |  |  |  |  | 1000 to 10000 | 10 to 100 |  | 
CCn1c(-c2cnccc2COC)c2c3cc(ccc31)-c1cccc(c1)C[C@H](NC(=O)[C@H](C(C)C)N(C)C(=O)[C@@H]1CCC(N=C=Nc3ccc(OC)cc3)C1)C(=O)N1CCC[C@H](N1)C(=O)OCC(C)(C)C2 (stereo partly shown) [70 A and B] | > 10000 | > 10000 | > 10000 | > 10000 |  |  |  | 
CCn1c(-c2cnccc2COC)c2c3cc(ccc31)-c1cccc(c1)C[C@H](NC(=O)[C@H](C(C)C)N(C)C(=O)C1CCC(N=C=Nc3ccc(OC)cc3)C1)C(=O)N1CCC[C@H](N1)C(=O)OCC(C)(C)C2 (stereo partly shown) [71 A and B] | > 10000 | > 10000 | > 10000 | > 10000 | > 10000 | > 10000 |  | 
CCn1c(-c2cccnc2[C@H](C)OC)c2c3cc(ccc31)-c1cc(O)cc(c1)C[C@H](NC(=O)[C@H](C(C)C)N(C)C(=O)C1CC3(C1)CN(C(=O)[C@H]1CN1)C3)C(=O)N1CCC[C@H](N1)C(=O)OCC(C)(C)C2 [Example 181] | 100 to 1000 | 100 to 1000 | 100 to 1000 | 100 to 1000 |  | 10 to 100 | 10 to 100 | 10 to 100
CCn1c(-c2cccnc2[C@H](C)OC)c2c3cc(ccc31)-c1cc(O)cc(c1)C[C@H](NC(=O)[C@H](C(C)C)N(C)C(=O)N1CCN(C(=O)[C@@H]3CN3)C(=O)C1)C(=O)N1CCC[C@H](N1)C(=O)OCC(C)(C)C2 [Example 197] | 10 to 100 |  | 10 to 100 | 10 to 100 |  |  | 10 to 100 | 10 to 100

Now from value to molecule, other results behind:

IC50 [1] [nM] | IC50 [2] [nM] | IC50 [3] [nM] | IC50 [4] [nM] | IC50 [5] [nM] | Structure (SMILES) | IC50 [6] [nM] | IC50 [7] [nM] | IC50 [8] [nM]
> 10000 |  | > 10000 | > 10000 | 1000 to 10000 | CCn1c(-c2cnccc2COC)c2c3cc(ccc31)-c1cccc(c1)C[C@H](NC(=O)[C@H](C(C)C)N(C)C(=O)CCN=C=NCCCN1CCOCC1)C(=O)N1CCC[C@H](N1)C(=O)OCC(C)(C)C2 [17 A and B] | 1000 to 10000 |  | 10 to 100
> 10000 | > 10000 | > 10000 | > 10000 | > 10000 | CCn1c(-c2cnccc2COC)c2c3cc(ccc31)-c1cccc(c1)C[C@H](NC(=O)[C@H](C(C)C)N(C)C(=O)CCN=C=Nc1ccccc1OC)C(=O)N1CCC[C@H](N1)C(=O)OCC(C)(C)C2 [20 A and B] |  |  | 
1000 to 10000 | > 10000 | 1000 to 10000 | 1000 to 10000 |  | CCCN=C=NCCC(=O)N(C)[C@H](C(=O)N[C@H]1Cc2cccc(c2)-c2ccc3c(c2)c(c(-c2cnccc2COC)n3CC)CC(C)(C)COC(=O)[C@@H]2CCCN(N2)C1=O)C(C)C [22 A and B] | 100 to 1000 | 10 to 100 | 10 to 100
> 10000 | > 10000 | > 10000 | > 10000 | > 10000 | CCn1c(-c2cnccc2COC)c2c3cc(ccc31)-c1cccc(c1)C[C@H](NC(=O)[C@H](C(C)C)N(C)C(=O)CCN=C=NCc1ccc(OC)cc1OC)C(=O)N1CCC[C@H](N1)C(=O)OCC(C)(C)C2 [61 A and B] | > 10000 |  | 
> 10000 | > 10000 | > 10000 | > 10000 | > 10000 | CCn1c(-c2cnccc2COC)c2c3cc(ccc31)-c1cccc(c1)C[C@H](NC(=O)[C@H](C(C)C)N(C)C(=O)CC1(N=C=Nc3ccc(OC)cc3)CC1)C(=O)N1CCC[C@H](N1)C(=O)OCC(C)(C)C2 [65 A and B] |  | > 10000 | 
> 10000 | > 10000 | > 10000 | > 10000 |  | CCn1c(-c2cnccc2COC)c2c3cc(ccc31)-c1cccc(c1)C[C@H](NC(=O)[C@H](C(C)C)N(C)C(=O)CCN=C=NCCc1cccs1)C(=O)N1CCC[C@H](N1)C(=O)OCC(C)(C)C2 [68 A and B] |  |  | 
 |  | > 10000 | > 10000 |  | CCn1c(-c2cnccc2COC)c2c3cc(ccc31)-c1cccc(c1)C[C@H](NC(=O)[C@H](C(C)C)N(C)C(=O)CCN=C=NC1(COC)CC1)C(=O)N1CCC[C@H](N1)C(=O)OCC(C)(C)C2 [72 A and B] |  | 100 to 1000 | 
 | > 10000 |  | > 10000 | > 10000 | CCn1c(-c2cnccc2COC)c2c3cc(ccc31)-c1cccc(c1)C[C@H](NC(=O)[C@H](C(C)C)N(C)C(=O)CCN=C=NC(C)(C)C)C(=O)N1CCC[C@H](N1)C(=O)OCC(C)(C)C2 [79 A and B] |  |  | 
> 10000 | > 10000 | > 10000 | > 10000 |  | CCn1c(-c2cnccc2COC)c2c3cc(ccc31)-c1cccc(c1)C[C@H](NC(=O)[C@H](C(C)C)N(C)C(=O)CCN=C=NCc1ccccc1C)C(=O)N1CCC[C@H](N1)C(=O)OCC(C)(C)C2 [82 A and B] | > 10000 |  | 
